Results on 23 compounds are retold here after patent EP0694535A1, “Non-peptidyl tachykinin receptor antagonists” (ELI LILLY AND COMPANY, priority 1994, dated 1996).

One test addresses T1, human NK-2 receptor (Homo sapiens, UniProt P21452).
T1 construct: expressed in transfected cells; host or cells: CHO-hNK-2R cells (CHO-derived), membrane preparation
T1 sequence (P21452 1-398): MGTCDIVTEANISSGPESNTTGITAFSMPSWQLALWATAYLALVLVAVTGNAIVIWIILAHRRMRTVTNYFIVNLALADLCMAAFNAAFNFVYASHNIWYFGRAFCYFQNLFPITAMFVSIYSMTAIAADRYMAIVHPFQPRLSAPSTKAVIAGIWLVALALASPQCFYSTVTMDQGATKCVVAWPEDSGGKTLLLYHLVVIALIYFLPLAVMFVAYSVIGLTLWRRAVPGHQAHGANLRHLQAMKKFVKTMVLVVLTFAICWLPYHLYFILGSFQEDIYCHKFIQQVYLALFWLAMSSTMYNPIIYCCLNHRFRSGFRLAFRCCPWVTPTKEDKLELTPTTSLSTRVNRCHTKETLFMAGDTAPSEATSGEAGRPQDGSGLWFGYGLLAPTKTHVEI
Description: NK-2 Receptor Binding Assay (CHO-hNK-2R membranes, iodohistidyl-neurokinin A). To be noted: inhibition of neurokinin A binding at ten micromolar, read-out: Percent Inhibition @ 10 μM. Here is the method:
The CHO-hNK-2R cells, a CHO-derived cell line transformed with the human NK-2 receptor, expressing about 400,000 such receptors per cell, were grown in 75 cm flasks or roller bottles in minimal essential medium (alpha modification) with 10% fetal bovine serum. The gene sequence of the human NK-2 receptor is given in N.P. Gerard, et al., Journal of Biological Chemistry, 265:20455-20462 (1990).
For preparation of membranes, 30 confluent roller bottle cultures were dissociated by washing each roller bottle with 10 ml of Dulbecco's phosphate buffered saline (PBS) without calcium and magnesium, followed by addition of 10 ml of enzyme-free cell dissociation solution (PBS-based, from Specialty Media, Inc.). After an additional 15 minutes, the dissociated cells were pooled and centrifuged at 1,000 RPM for 10 minutes in a clinical centrifuge. Membranes were prepared by homogenization of the cell pellets in 300 ml 50 mM Tris buffer, pH 7.4 with a Tekmar® homogenizer for 10-15 seconds, followed by centrifugation at 12,000 RPM (20,000 x g) for 30 minutes using a Beckman JA-14® rotor. The pellets were washed once using the above procedure. and the final pellets were resuspended in 100-120 ml 50 mM Tris buffer, pH 7.4, and 4 ml aliquots stored frozen at -70 °C. The protein concentration of this preparation was 2 mg/ml.
For the receptor binding assay, one 4-ml aliquot of the CHO-hNK-2R membrane preparation was suspended in 40 ml of assay buffer containing 50 mM Tris, pH 7.4, 3 mM manganese chloride, 0.02% bovine serum albumin (BSA) and 4 µg/ml chymostatin. A 200 µl volume of the homogenate (40 µg protein) was used per sample. The radioactive ligand was [[…]]iodohistidyl-neurokinin A (New England Nuclear, NEX-252), 2200 Ci/mmol. The ligand was prepared in assay buffer at 20 nCi per 100 µl; the final concentration in the assay was 20 pM. Non-specific binding was determined using 1 µM eledoisin. Ten concentrations of eledoisin from 0.1 to 1000 nM were used for a standard concentration-response curve.
All samples and standards were added to the incubation in 10 µl dimethylsulfoxide (DMSO) for screening (single dose) or in 5 µl DMSO for IC₅₀ determinations. The order of additions for incubation was 190 or 195 µl assay buffer, 200 µl homogenate, 10 or 5 µl sample in DMSO, 100 µl radioactive ligand. The samples were incubated 1 hr at room temperature and then filtered on a cell harvester through filters which had been presoaked for two hours in 50 mM Tris buffer, pH 7.7, containing 0.5% BSA. The filter was washed 3 times with approximately 3 ml of cold 50 mM Tris buffer, pH 7.7. The filter circles were then punched into 12 x 75 mm polystyrene tubes and counted in a gamma counter.
Table II, infra, provides a representative sample of the effectiveness as NK-2 receptor antagonists of many of the compounds of Formula I. The first column provides the Example number of the compound tested. The second column provides either the percent inhibition of neurokinin A binding when the compound is present in a ten micromolar concentration or the amount of compound (in micromolar amounts) necessary to inhibit fifty percent of the binding of neurokinin A. Those values which represent IC₅₀ values are designated by parentheses.

The next test concerns the target T2, NK-1 receptor (Homo sapiens, UniProt P25103).
T2 construct: an aliquot of IM9 cells; endogenous in cells; host or cells: IM9 cells (whole cells)
Description: NK-1 Receptor Binding Assay (competition with labeled substance P on IM9 cells). The conditions noted are these: for IC50: concentration which inhibits fifty percent of the binding of substance P, 20 pM labeled substance P, 45 minutes at 4°C; for inhibition at 10 µM: inhibition of substance P binding to the NK-1 receptor, read-out: Percent Inhibition. The method, then:
Radioreceptor binding assays were performed using a derivative of a previously published protocol. D.G. Payan, et al., Journal of Immunology, 133:3260-3265 (1984). In this assay an aliquot of IM9 cells (1 x 10⁶ cells/tube in […] medium supplemented with 10% fetal calf serum) was incubated with 20 pM […] substance P in the presence of increasing competitor concentrations for 45 minutes at 4°C.
The IM9 cell line is a well-characterized cell line which is readily available to the public. See. e.g., Annals of the New York Academy of Science, 190: 221-234 (1972); Nature (London), 251:443-444 (1974); Proceedings of the National Academy of Sciences (USA), 71:84-88 (1974). These cells were routinely cultured in RPMI 1640 supplemented with 50 µg/ml gentamicin sulfate and 10% fetal calf serum.
The reaction was terminated by filtration through a glass fiber filter harvesting system using filters previously soaked for 20 minutes in 0.1% polyethylenimine. Specific binding of labeled substance P was determined in the presence of 20 nM unlabeled ligand.
Column 1 provides the example number of the test antagonist compound. The next columns detail the substitution patterns of the test compound.

T2 sequence (P25103 whole entry): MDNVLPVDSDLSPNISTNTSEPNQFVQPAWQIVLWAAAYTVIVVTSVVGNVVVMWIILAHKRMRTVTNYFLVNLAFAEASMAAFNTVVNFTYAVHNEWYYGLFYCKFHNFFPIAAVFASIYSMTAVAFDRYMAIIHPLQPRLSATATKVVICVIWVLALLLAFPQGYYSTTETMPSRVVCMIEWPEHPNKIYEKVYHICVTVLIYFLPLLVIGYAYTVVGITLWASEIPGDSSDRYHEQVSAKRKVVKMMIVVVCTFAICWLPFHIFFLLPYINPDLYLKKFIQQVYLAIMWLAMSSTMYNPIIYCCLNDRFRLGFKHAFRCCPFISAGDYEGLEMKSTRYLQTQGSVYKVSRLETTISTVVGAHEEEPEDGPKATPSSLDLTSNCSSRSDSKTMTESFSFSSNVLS

As for `COc1cc(-c2nc3ccccc3n2Cc2ccccc2C)cc(OC)c1OC` [Example 43, 1-(2-methylbenzyl)-2-(3,4,5-trimethoxyphenyl)-benzimidazole], at human NK-2 receptor, the inhibition at 10 µM came to 68.4%. This compound also registered an IC50 on NK-1 receptor of 842 nM.
The corresponding values for `COc1cc(-c2nc3ccccc3n2Cc2cccc(C)c2)cc(OC)c1OC` [Example 44, 1-(3-methylbenzyl)-2-(3,4,5-trimethoxyphenyl)-benzimidazole] are 52.9% and 2050 nM.
Take `COc1cccc(Cn2c(-c3cc(OC)c(OC)c(OC)c3)nc3ccccc32)c1` [Example 45, 1-(3-methoxybenzyl)-2-(3,4,5-trimethoxyphenyl)-benzimidazole]: the inhibition at 10 µM at human NK-2 receptor is 23.2%; at NK-1 receptor, 81%.
The corresponding values for `COc1ccc(Cn2c(-c3cc(OC)c(OC)c(OC)c3)nc3ccccc32)cc1` [Example 46, 1-(4-methoxybenzyl)-2-(3,4,5-trimethoxyphenyl)-benzimidazole] are -1.5% and 56%.
As to `COc1ccccc1Cn1c(-c2cc(OC)c(OC)c(OC)c2)nc2ccccc21` [Example 47, 1-(2-methoxybenzyl)-2-(3,4,5-trimethoxyphenyl)-benzimidazole], the inhibition at 10 µM at human NK-2 receptor was 67.7%. This compound also had an IC50 on NK-1 receptor of 449 nM.
The corresponding values for `COc1cc(-c2nc3ccccc3n2Cc2ccccc2F)cc(OC)c1OC` [Example 48, 1-(2-fluorobenzyl)-2-(3,4,5-trimethoxyphenyl)-benzimidazole] are 44.2% and 1390 nM.
`COc1cc(-c2nc3ccccc3n2Cc2ccccc2C(F)(F)F)cc(OC)c1OC` [Example 49, 1-(2-trifluoromethylbenzyl)-2-(3,4,5-trimethoxyphenyl)-benzimidazole]: the inhibition at 10 µM on human NK-2 receptor was 82%. At NK-1 receptor, the IC50 amounted to 721 nM.
Regarding `COc1cc(-c2nc3ccccc3n2Cc2ccccc2I)cc(OC)c1OC` [Example 50, 1-(2-iodobenzyl)-2-(3,4,5-trimethoxyphenyl)-benzimidazole], at human NK-2 receptor, the inhibition at 10 µM stood at 87.4%. For the same compound, at NK-1 receptor, the half-inhibitory concentration (IC50) stood at 823 nM.
The corresponding values for `COc1cc(-c2nc3ccccc3n2Cc2ccccc2Br)cc(OC)c1OC` [Example 51, 1-(2-bromobenzyl)-2-(3,4,5-trimethoxyphenyl)-benzimidazole] are 84.8% and 591 nM.
Consider `COc1cc(-c2nc3ccccc3n2Cc2c(Cl)cccc2Cl)cc(OC)c1OC` [Example 52, 1-(2,6-dichlorobenzyl)-2-(3,4,5-trimethoxyphenyl)-benzimidazole], for which the inhibition at 10 µM at human NK-2 receptor is -7.1%; on NK-1 receptor it was 20%.
The corresponding values for `COc1cc(-c2nc3ccccc3n2Cc2ccc(Cl)c(Cl)c2)cc(OC)c1OC` [Example 53, 1-(3,4-dichlorobenzyl)-2-(3,4,5-trimethoxyphenyl)-benzimidazole] are 33.4% and 45%.
The corresponding values for `COc1cc(-c2nc3ccccc3n2Cc2ccc(Cl)cc2Cl)cc(OC)c1OC` [Example 54, 1-(2,4-dichlorobenzyl)-2-(3,4,5-trimethoxyphenyl)-benzimidazole] are 86.2% and 56%.
As for `COc1cc(-c2nc3ccccc3n2Cc2ccc(C)cc2)cc(OC)c1OC` [Example 55, 1-(4-methylbenzyl)-2-(3,4,5-trimethoxyphenyl)-benzimidazole], the inhibition at 10 µM on human NK-2 receptor amounted to 21.9%; at NK-1 receptor it was 53%.
The corresponding values for `Cc1cccc(-c2nc3ccccc3n2Cc2ccccc2Cl)c1` [Example 56, 1-(2-chlorobenzyl)-2-(3-methylphenyl)-benzimidazole] are 63.7% and 71%.
As to `Cc1cccc(-c2nc3ccccc3n2Cc2cccc(Cl)c2)c1` [Example 57, 1-(3-Chlorobenzyl)-2-(3-methylphenyl)benzimidazole], the inhibition at 10 µM on human NK-2 receptor was 50.8%. The same compound yielded an IC50 on NK-1 receptor of 2650 nM.
Take `Cc1cccc(-c2nc3ccccc3n2Cc2ccc(Cl)cc2)c1` [Example 58, 1-(4-Chlorobenzyl)-2-(3-methylphenyl)benzimidazole]: the inhibition at 10 µM stood at 42.9% on human NK-2 receptor and 29% at NK-1 receptor.
The corresponding values for `Cc1cccc(-c2nc3ccccc3n2Cc2ccccc2Br)c1` [Example 60, 1-(2-Bromobenzyl)-2-(3-methylphenyl)benzimidazole] are 62.6% and 72%.
The corresponding values for `Cc1cccc(-c2nc3ccccc3n2Cc2ccccc2I)c1` [Example 61, 1-(2-Iodobenzyl)-2-(3-methylphenyl)benzimidazole] are 60.1% and 66%.
Regarding `Cc1cccc(-c2nc3ccccc3n2Cc2c(Cl)cccc2Cl)c1` [Example 62, 1-(2,6-Dichlorobenzyl)-2-(3-methylphenyl)benzimidazole], the inhibition at 10 µM at human NK-2 receptor was found to be 23.1%; at NK-1 receptor, 31%.
The corresponding values for `Cc1cccc(-c2nc3ccccc3n2Cc2ccc(Cl)c(Cl)c2)c1` [Example 64, 1-(3,4-Dichlorobenzyl)-2-(3-methylphenyl)benzimidazole] are 58.7% and 41%.
`COc1cc(-c2nc3ccc(OCCN4CCOCC4)cc3n2Cc2ccccc2)cc(OC)c1OC` [Example 70, 1-benzyl-2-(3,4,5-trimethoxyphenyl)-6-[2-(4-morpholinyl)ethoxy]benzimidazole]: the inhibition at 10 µM at human NK-2 receptor is 63.7%. This compound also yielded an IC50 at NK-1 receptor of 85 nM.
The corresponding values for `COc1cc(-c2nc3ccc(OCCN4CCCCC4)cc3n2Cc2ccccc2)cc(OC)c1OC` [Example 71, 1-benzyl-2-(3,4,5-trimethoxyphenyl)-6-[2-(1-piperidinyl)ethoxy]benzimidazole] are 70.1% and 60 nM.
Turning to `COc1cc(-c2nc3ccc(OCCN4CCCC4)cc3n2Cc2ccccc2)cc(OC)c1OC` [Example 72, 1-benzyl-2-(3,4,5-trimethoxyphenyl)-6-[2-(1-pyrroldinyl)ethoxy]benzimidazole], the inhibition at 10 µM on human NK-2 receptor came out at 53.8%. Moreover, on NK-1 receptor, the 50% inhibitory concentration (IC50) was 74 nM.

A word on the inhibition: it is the drop in the measured response relative to a control, in per cent. For orientation: IC50 means the concentration at which inhibition is half-maximal. Low values mean inhibition by little substance, high ones a need for much substance.
